Experimental data taken from patent publication US6448204B1, “Herbicidal 2-aryloxy-4-methyl-6-pyrazol-1-yl-pyridines” (BASF Aktiengesellschaft, priority 1999, dated 2002).

Tests used:
Assay type in all cases: in vivo
[1] = test system: thirteen weed species (broadleaf weeds and grasses); assay: Pre-emergence test, summary over all weeds; conditions: for Number of weed species well / sufficiently controlled: out of thirteen species
Procedure: (§1) To evaluate their herbicidal activity, compounds according to the invention are tested using a representative range of plants: […] The pre-emergence tests involve spraying a liquid formulation of the compound onto the soil in which the seeds of the plant species mentioned above has recently been sown. The soil used in the tests is a prepared horticultural loam. […] In these tests untreated sown soil are used as controls.

[2] = test system: Ipomoea hederacea (IPOHE); assay: Post-emergence test; conditions: 2-4 weeks after treatment
Procedure: (§2) To evaluate their herbicidal activity, compounds according to the invention are tested using a representative range of plants:
(§3) These acetone solutions are diluted with water and the resulting formulations applied at dosage levels equivalent of about 0.025 to 0.4 kg per hectare of test compound per pot. After spraying the plants are placed on greenhouse benches and are cared for in the usual manner, commensurate with conventional greenhouse practices. From 2 to 4 weeks after treatment, the seedling plants are examined and rated according to the rating system provided above.

[3] = test system: Lolium multiflorum (LOLMU); assay: Post-emergence test; conditions: 2-4 weeks after treatment
Procedure: as §2, §3

[4] = test system: Matricaria inodora (MATIN); assay: Post-emergence test; conditions: 2-4 weeks after treatment
Procedure: as §2, §3

[5] = test system: Abutilon theophrasti (ABUTH); assay: Post-emergence test; conditions: 2-4 weeks after treatment
Procedure: as §2, §3

[6] = test system: Galium aparine (GALAP); assay: Post-emergence test; conditions: 2-4 weeks after treatment
Procedure: as §2, §3

[7] = test system: Digitaria sanguinalis (DIGSA); assay: Post-emergence test; conditions: 2-4 weeks after treatment
Procedure: as §2, §3

[8] = test system: Lamium purpureum (LAMPU); assay: Post-emergence test; conditions: 2-4 weeks after treatment
Procedure: as §2, §3

[9] = test system: Setaria viridis (SETVI); assay: Post-emergence test; conditions: 2-4 weeks after treatment
Procedure: as §2, §3

[10] = test system: Stellaria media (STEME); assay: Post-emergence test; conditions: 2-4 weeks after treatment
Procedure: as §2, §3

[11] = test system: Cassia obtusifolia (CASOB); assay: Post-emergence test; conditions: 2-4 weeks after treatment
Procedure: as §2, §3

[12] = test system: Echinochloa crus-galli (ECHCG); assay: Post-emergence test; conditions: 2-4 weeks after treatment
Procedure: as §2, §3

[13] = test system: Alopecurus myosuroides (ALOMY); assay: Post-emergence test; conditions: 2-4 weeks after treatment
Procedure: as §2, §3

[14] = test system: Ambrosia artemisifolia (AMBEL); assay: Post-emergence test; conditions: 2-4 weeks after treatment
Procedure: as §2, §3

[15] = test system: Ipomoea hederacea (IPOHE); assay: Pre-emergence test; conditions: 3 weeks after treatment
Procedure: as §1

[16] = test system: Lolium multiflorum (LOLMU); assay: Pre-emergence test; conditions: 3 weeks after treatment
Procedure: as §1

Cc1cc(Oc2cc(C(F)(F)F)nn2C)nc(-n2ccc(C(F)(F)F)n2)c1 [Example 2, 4-methyl-2-(-3-trifluoromethyl-1H-prazol-1-yl)-6-(1-methyl-3-trifluoromethyl-pyrazol-5-yloxy)-pyridine]
Herbicidal activity, overall judgement [1]: excellent activity on both broadleaf weeds and grasses
Rate required to obtain the same level of weed control [1]: 0.100 kg/ha
Number of weed species well / sufficiently controlled ([1]; 0.100 kg/ha): eleven out of thirteen species
Number of weed species well / sufficiently controlled ([1]; 0.400 kg/ha): all of the thirteen weed species
Rating IPOHE (post-emergence application) ([2]; 0.025 kg/ha): 9 (9 - Complete kill)
Rating IPOHE (post-emergence application) ([2]; 0.100 kg/ha): 9 (9 - Complete kill)
Rating IPOHE (post-emergence application) ([2]; 0.400 kg/ha): 9 (9 - Complete kill)
Rating LOLMU (post-emergence application) ([3]; 0.025 kg/ha): 6 (6 - Herbicidal effect)
Rating LOLMU (post-emergence application) ([3]; 0.100 kg/ha): 9 (9 - Complete kill)
Rating LOLMU (post-emergence application) ([3]; 0.400 kg/ha): 9 (9 - Complete kill)
Rating MATIN (post-emergence application) ([4]; 0.025 kg/ha): 6 (6 - Herbicidal effect)
Rating MATIN (post-emergence application) ([4]; 0.100 kg/ha): 8 (8 - Approaching complete kill)
Rating MATIN (post-emergence application) ([4]; 0.400 kg/ha): 8 (8 - Approaching complete kill)
Rating ABUTH (post-emergence application) ([5]; 0.025 kg/ha): 6 (6 - Herbicidal effect)
Rating ABUTH (post-emergence application) ([5]; 0.100 kg/ha): 8 (8 - Approaching complete kill)
Rating ABUTH (post-emergence application) ([5]; 0.400 kg/ha): 9 (9 - Complete kill)
Rating GALAP (post-emergence application) ([6]; 0.025 kg/ha): 5 (5 - Definite injury)
Rating GALAP (post-emergence application) ([6]; 0.100 kg/ha): 6 (6 - Herbicidal effect)
Rating GALAP (post-emergence application) ([6]; 0.400 kg/ha): 8 (8 - Approaching complete kill)
Rating DIGSA (post-emergence application) ([7]; 0.025 kg/ha): 6 (6 - Herbicidal effect)
Rating DIGSA (post-emergence application) ([7]; 0.100 kg/ha): 8 (8 - Approaching complete kill)
Rating DIGSA (post-emergence application) ([7]; 0.400 kg/ha): 9 (9 - Complete kill)
Rating LAMPU (post-emergence application) ([8]; 0.025 kg/ha): 8 (8 - Approaching complete kill)
Rating LAMPU (post-emergence application) ([8]; 0.100 kg/ha): 9 (9 - Complete kill)
Rating LAMPU (post-emergence application) ([8]; 0.400 kg/ha): 9 (9 - Complete kill)
Rating SETVI (post-emergence application) ([9]; 0.025 kg/ha): 6 (6 - Herbicidal effect)
Rating SETVI (post-emergence application) ([9]; 0.100 kg/ha): 8 (8 - Approaching complete kill)
Rating SETVI (post-emergence application) ([9]; 0.400 kg/ha): 9 (9 - Complete kill)
Rating STEME (post-emergence application) ([10]; 0.025 kg/ha): 8 (8 - Approaching complete kill)
Rating STEME (post-emergence application) ([10]; 0.100 kg/ha): 9 (9 - Complete kill)
Rating STEME (post-emergence application) ([10]; 0.400 kg/ha): 9 (9 - Complete kill)
Rating CASOB (post-emergence application) ([11]; 0.025 kg/ha): 9 (9 - Complete kill)
Rating CASOB (post-emergence application) ([11]; 0.100 kg/ha): 9 (9 - Complete kill)
Rating CASOB (post-emergence application) ([11]; 0.400 kg/ha): 9 (9 - Complete kill)
Rating ECHCG (post-emergence application) ([12]; 0.025 kg/ha): 6 (6 - Herbicidal effect)
Rating ECHCG (post-emergence application) ([12]; 0.100 kg/ha): 9 (9 - Complete kill)
Rating ECHCG (post-emergence application) ([12]; 0.400 kg/ha): 9 (9 - Complete kill)
Rating ALOMY (post-emergence application) ([13]; 0.025 kg/ha): 4 (4 - Injury)
Rating ALOMY (post-emergence application) ([13]; 0.100 kg/ha): 8 (8 - Approaching complete kill)
Rating ALOMY (post-emergence application) ([13]; 0.400 kg/ha): 8 (8 - Approaching complete kill)
Rating AMBEL (post-emergence application) ([14]; 0.025 kg/ha): 6 (6 - Herbicidal effect)
Rating AMBEL (post-emergence application) ([14]; 0.100 kg/ha): 8 (8 - Approaching complete kill)
Rating AMBEL (post-emergence application) ([14]; 0.400 kg/ha): 8 (8 - Approaching complete kill)
Assessment rating IPOHE (pre-emergence application) ([15]; 0.013 kg/ha): 1 (1 - Trace effect)
Assessment rating IPOHE (pre-emergence application) ([15]; 0.025 kg/ha): 3 (3 - Moderate effect)
Assessment rating IPOHE (pre-emergence application) ([15]; 0.100 kg/ha): 6 (6 - Herbicidal effect)
Assessment rating IPOHE (pre-emergence application) ([15]; 0.400 kg/ha): 9 (9 - Complete kill)
Assessment rating LOLMU (pre-emergence application) ([16]; 0.013 kg/ha): 6 (6 - Herbicidal effect)
Assessment rating LOLMU (pre-emergence application) ([16]; 0.025 kg/ha): 6 (6 - Herbicidal effect)
Assessment rating LOLMU (pre-emergence application) ([16]; 0.100 kg/ha): 8 (8 - Approaching complete kill)
Assessment rating LOLMU (pre-emergence application) ([16]; 0.400 kg/ha): 8 (8 - Approaching complete kill)
